Laboratory results from publication PMC6212438, “Vapor detection and discrimination with a panel of odorant receptors” (Nature Communications, 2018).

Target: T1, Olfr1484 (Mus musculus, UniProt Q8VEU6)
T1 construct: gene Or5b122; full ORF with N-terminal Rho-tag (first 20 residues of human rhodopsin), Hana3A cells, co-expressed RTP1S
T1 sequence (Q8VEU6 1-315): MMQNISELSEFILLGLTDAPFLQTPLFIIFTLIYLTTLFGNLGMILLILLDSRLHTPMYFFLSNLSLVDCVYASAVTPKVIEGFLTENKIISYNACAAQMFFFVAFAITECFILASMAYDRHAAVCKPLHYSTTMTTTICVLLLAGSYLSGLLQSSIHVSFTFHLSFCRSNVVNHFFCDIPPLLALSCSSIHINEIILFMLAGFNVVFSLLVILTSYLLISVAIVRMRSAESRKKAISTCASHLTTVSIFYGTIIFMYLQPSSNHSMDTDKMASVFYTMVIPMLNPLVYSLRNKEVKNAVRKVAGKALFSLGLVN
Assay: GloSensor cAMP luminescence in Hana3A cells
Assay type: cell-based
Conditions: agonist; vapor-phase stimulation, odorant diluted in mineral oil

SMILES: O=C1CCCCC1 [cyclohexanone]
- GloSensor cAMP luminescence in Hana3A cells: Olfr1484 to cyclohexanone (CH)
